In ChEMBL document CHEMBL1201862, “PubChem BioAssay data set” (2004):
Activity calls are given as the source filed them.

Key:
[1] = target: Mitogen-activated protein kinase 10 (Homo sapiens, UniProt P53779); assay: Dose response biochemical screening assay for inhibitors of c-Jun N-Terminal Kinase 3 (JNK3). [Related pubchem assays: 746 ]
[2] = inhibitors of SNCA 5'UTR-driven reporter translation, confirmation, H4 neuroglioma cells, luminescence (AID 1988); format: functional, cell-based
[3] = target: T1, Luciferin 4-monooxygenase (Photinus pyralis, UniProt P08659); assay: firefly luciferase enzyme inhibitors, dose response, biochemical, luminescence (AID 1891)
HT-1080 = assay: cytotoxicity in HT1080 fibrosarcoma cells, cell-based, fluorescence readout (AID 620); format: functional; settings: Homo sapiens
[4] = target: T1, Luciferin 4-monooxygenase; assay: Counter Screen for Luciferase-based Assay Positives. [Related pubchem assays: 620, 618, 411 ]
[5] = Luminescence Cell-Based Dose Confirmation HTS to Identify Inhibitors of Platelet Dense Granule Release. [Related pubchem assays: 1663 (Primary HTS), 1678 (Summary of Project)]; format: functional
[6] = Luminescence Cell-Based Dose Response HTS to Identify Inhibitors of 5'UTR Stem-Loop Driven Prion Protein mRNA Translation in H4 Neuroglioblastoma Cells. [Related pubchem assays: 1827 (Project Summary), 1813 (Primary HTS)]; format: functional
Estrogen receptor beta = Estrogen receptor beta (Homo sapiens, UniProt Q92731);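 also: recombinant ER-beta bound to coactivator SRC1 peptide in presence of estradiol agonist; inhibitors block coactivator peptide binding and lower the FRET signal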
Sequence of Estrogen receptor beta (Q92731 whole entry): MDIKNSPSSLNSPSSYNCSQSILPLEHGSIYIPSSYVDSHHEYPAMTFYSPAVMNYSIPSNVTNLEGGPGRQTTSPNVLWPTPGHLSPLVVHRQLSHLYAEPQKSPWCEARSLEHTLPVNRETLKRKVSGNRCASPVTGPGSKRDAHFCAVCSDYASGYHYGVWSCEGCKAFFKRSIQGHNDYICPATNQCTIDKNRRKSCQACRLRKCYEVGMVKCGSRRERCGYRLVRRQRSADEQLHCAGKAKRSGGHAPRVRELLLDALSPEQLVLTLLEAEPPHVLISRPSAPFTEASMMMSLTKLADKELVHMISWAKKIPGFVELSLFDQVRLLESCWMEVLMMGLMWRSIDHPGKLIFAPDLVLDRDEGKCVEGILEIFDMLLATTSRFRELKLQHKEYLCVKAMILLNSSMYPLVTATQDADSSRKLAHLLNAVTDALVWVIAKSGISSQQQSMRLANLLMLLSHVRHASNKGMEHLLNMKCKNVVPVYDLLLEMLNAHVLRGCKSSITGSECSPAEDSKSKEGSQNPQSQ

[7] = A Cell Based Secondary Assay To Explore Cytotoxicity of Compounds that Sensitize Mycobacterium Tuberculosis to Beta-Lactam Antibiotics.; format: functional
[8] = A2780 ovarian cancer cell cytotoxicity, dose response, cytotoxicity control, plate reader, dry powder samples (AID 743046); format: functional, cell-based
[9] = NIH:OVCAR-3 ovarian cancer cell cytotoxicity, dose response, PAX8 inhibitor project, plate reader, dry powder samples (AID 743044); format: functional, cell-based
Paired box protein Pax-8 = Paired box protein Pax-8 (Homo sapiens, UniProt Q06710); assay: inhibitors of PAX8-driven TPO luciferase reporter, dose response, RMG-I cells, cherry-pick (AID 687027); format: functional, cell-based;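 also: luciferase reporter driven by Pax8 target thyroperoxidase promoter measured by SteadyGlo luminescence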
[10] = cytotoxicity in OVCAR8 ovarian cancer cells, dose response, PAX8 project, cell-based, plate reader, dry powder samples (AID 743197); format: functional; settings: OVCAR-8
[11] = target: T2, COUP transcription factor 2 (Homo sapiens, UniProt P24468); assay: Luminescence-based cell-based high throughput dose response assay to identify inhibitors of COUP-TFII (NR2F2).; format: functional;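 also: HEK293 cells transiently cotransfected with COUP-TFII expression vector and reporter; luciferase reporter luminescence driven by COUP-TFII from the pX2-168 reporter plasmid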
T2 sequence (P24468 whole entry): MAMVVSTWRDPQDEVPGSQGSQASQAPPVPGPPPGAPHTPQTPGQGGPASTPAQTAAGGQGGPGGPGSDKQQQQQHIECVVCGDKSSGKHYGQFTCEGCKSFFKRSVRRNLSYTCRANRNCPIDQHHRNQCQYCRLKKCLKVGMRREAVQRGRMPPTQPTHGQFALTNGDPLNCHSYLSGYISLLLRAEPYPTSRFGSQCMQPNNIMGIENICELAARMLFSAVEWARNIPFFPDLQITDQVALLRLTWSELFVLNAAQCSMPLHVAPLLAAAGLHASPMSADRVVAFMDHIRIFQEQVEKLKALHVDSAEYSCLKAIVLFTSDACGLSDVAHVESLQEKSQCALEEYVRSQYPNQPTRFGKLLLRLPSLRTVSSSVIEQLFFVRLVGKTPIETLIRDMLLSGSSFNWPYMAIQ

[12] = target: T3, Small ubiquitin-related modifier 1 (Homo sapiens, UniProt P63165); assay: inhibitors of SUMO1 partner interactions, dose response, biochemical, FRET (AID 624383); format: functional; settings: read-out: IC50_Mean
T3 sequence (P63165 whole entry): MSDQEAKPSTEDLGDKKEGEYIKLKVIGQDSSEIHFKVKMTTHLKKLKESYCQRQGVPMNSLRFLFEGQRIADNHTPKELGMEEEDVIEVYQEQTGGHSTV

[13] = target: T3, Small ubiquitin-related modifier 1; assay: inhibitors of SUMO1 peptide binding, dose response, biochemical, fluorescence polarization, uHTS hits (AID 624382); format: functional; settings: read-out: IC50_Mean
Caspase-6 = target: T4, Caspase-6 (Homo sapiens, UniProt P55212); assay: human caspase-6 inhibitors, dose response, biochemical, VEID-R110 fluorescence, cherry-pick (AID 720632)
T4 sequence (P55212 whole entry): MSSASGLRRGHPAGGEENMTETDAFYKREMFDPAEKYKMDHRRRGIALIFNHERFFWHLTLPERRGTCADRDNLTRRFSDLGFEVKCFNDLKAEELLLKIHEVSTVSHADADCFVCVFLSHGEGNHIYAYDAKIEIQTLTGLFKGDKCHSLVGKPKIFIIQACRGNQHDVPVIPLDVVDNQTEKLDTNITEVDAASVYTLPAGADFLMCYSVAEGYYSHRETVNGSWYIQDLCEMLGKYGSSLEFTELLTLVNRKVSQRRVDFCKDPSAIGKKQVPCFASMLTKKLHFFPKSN

[14] = HepG2 cell cytotoxicity, dose response, cytotoxicity control for Shn3 inhibitor project, CellTiter-Glo, cherry-picked (AID 624134); format: functional, cell-based
[15] = control 3'UTR Renilla luciferase suppression, dose response, counter-screen for Shn3 inhibitor project, cell-based, Clone20-Shn3RL, cherry-picked (AID 624133); format: functional
[16] = Shn3 3'UTR reporter inhibitors, dose response, cell-based, Clone20 osteoblasts, firefly luciferase, cherry-picked (AID 624132); format: functional;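 also: firefly luciferase luminescence from reporter carrying the Shn3 3'UTR in osteoblasts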
[17] = target: Peroxisome proliferator-activated receptor gamma/Nuclear receptor coactivator 3 (Homo sapiens, UniProt P37231); format: functional;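 also: agonist potency for raising coactivator recruitment to the receptor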
[18] = target: Peroxisome proliferator-activated receptor gamma/Nuclear receptor coactivator 2 (Homo sapiens, UniProt P37231); format: functional;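 also: agonist potency for raising coactivator recruitment to the receptor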
Sequence of Peroxisome proliferator-activated receptor gamma/Nuclear receptor coactivator 2 (P37231 whole entry): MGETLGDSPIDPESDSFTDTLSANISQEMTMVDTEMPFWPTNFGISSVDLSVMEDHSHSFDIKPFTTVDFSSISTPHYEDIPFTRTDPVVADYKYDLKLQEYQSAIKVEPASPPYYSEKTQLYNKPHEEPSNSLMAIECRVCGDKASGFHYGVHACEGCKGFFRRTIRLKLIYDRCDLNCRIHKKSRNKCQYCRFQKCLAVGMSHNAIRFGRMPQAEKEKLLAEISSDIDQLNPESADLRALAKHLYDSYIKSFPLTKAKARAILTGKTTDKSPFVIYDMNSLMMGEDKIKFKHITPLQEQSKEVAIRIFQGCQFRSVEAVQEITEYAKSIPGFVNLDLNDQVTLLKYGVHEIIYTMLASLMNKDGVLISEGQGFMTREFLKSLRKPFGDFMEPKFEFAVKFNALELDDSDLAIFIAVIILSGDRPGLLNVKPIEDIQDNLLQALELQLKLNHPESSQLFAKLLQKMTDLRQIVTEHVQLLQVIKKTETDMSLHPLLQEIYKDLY
Sequence of Peroxisome proliferator-activated receptor gamma/Nuclear receptor coactivator 2 (Q15596 whole entry, further chain): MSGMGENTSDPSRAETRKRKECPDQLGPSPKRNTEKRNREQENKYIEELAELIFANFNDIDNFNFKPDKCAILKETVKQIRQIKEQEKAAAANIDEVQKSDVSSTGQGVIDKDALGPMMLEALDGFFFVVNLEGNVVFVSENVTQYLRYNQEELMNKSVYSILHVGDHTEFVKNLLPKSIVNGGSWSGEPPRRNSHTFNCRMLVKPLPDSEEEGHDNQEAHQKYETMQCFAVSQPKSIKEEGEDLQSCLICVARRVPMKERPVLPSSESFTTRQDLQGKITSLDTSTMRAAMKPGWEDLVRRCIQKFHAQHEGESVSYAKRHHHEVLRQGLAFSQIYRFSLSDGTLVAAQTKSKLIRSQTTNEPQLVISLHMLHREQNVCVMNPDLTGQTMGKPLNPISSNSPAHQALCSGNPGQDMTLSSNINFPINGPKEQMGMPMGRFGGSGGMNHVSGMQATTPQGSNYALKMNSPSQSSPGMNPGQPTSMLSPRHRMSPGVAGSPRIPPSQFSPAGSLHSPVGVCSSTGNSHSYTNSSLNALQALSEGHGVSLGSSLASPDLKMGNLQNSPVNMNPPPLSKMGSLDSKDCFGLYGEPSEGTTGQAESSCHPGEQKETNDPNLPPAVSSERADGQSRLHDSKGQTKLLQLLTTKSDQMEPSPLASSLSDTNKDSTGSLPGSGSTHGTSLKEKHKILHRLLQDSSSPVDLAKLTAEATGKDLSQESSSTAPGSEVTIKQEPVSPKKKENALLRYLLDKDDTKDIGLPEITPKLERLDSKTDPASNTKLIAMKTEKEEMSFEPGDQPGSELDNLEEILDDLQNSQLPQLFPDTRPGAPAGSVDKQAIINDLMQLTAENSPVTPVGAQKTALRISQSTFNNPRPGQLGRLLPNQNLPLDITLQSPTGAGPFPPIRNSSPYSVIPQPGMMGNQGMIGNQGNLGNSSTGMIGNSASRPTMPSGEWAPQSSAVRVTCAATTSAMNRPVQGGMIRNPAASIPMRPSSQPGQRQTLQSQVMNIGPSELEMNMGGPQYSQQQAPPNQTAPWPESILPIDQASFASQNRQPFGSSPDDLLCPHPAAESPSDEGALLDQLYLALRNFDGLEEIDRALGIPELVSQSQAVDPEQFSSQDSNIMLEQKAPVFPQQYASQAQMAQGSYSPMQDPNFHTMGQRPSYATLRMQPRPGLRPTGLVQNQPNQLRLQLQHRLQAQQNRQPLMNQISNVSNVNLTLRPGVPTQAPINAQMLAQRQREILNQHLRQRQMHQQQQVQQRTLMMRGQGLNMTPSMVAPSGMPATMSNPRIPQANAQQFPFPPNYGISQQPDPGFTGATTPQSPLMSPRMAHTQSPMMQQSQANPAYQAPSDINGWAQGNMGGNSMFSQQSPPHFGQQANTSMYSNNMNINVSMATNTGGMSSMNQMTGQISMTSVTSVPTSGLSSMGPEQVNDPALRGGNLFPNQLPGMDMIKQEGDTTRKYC

[19] = target: Peroxisome proliferator-activated receptor gamma/Nuclear receptor coactivator 1 (Homo sapiens, UniProt P37231); format: functional;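 also: agonist potency as compounds enhance coactivator SRC-1 recruitment to PPARgamma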
Sequence of Peroxisome proliferator-activated receptor gamma/Nuclear receptor coactivator 1 (P37231 whole entry): as the sequence (P37231 whole entry) above
Sequence of Peroxisome proliferator-activated receptor gamma/Nuclear receptor coactivator 1 (Q15788 whole entry, further chain): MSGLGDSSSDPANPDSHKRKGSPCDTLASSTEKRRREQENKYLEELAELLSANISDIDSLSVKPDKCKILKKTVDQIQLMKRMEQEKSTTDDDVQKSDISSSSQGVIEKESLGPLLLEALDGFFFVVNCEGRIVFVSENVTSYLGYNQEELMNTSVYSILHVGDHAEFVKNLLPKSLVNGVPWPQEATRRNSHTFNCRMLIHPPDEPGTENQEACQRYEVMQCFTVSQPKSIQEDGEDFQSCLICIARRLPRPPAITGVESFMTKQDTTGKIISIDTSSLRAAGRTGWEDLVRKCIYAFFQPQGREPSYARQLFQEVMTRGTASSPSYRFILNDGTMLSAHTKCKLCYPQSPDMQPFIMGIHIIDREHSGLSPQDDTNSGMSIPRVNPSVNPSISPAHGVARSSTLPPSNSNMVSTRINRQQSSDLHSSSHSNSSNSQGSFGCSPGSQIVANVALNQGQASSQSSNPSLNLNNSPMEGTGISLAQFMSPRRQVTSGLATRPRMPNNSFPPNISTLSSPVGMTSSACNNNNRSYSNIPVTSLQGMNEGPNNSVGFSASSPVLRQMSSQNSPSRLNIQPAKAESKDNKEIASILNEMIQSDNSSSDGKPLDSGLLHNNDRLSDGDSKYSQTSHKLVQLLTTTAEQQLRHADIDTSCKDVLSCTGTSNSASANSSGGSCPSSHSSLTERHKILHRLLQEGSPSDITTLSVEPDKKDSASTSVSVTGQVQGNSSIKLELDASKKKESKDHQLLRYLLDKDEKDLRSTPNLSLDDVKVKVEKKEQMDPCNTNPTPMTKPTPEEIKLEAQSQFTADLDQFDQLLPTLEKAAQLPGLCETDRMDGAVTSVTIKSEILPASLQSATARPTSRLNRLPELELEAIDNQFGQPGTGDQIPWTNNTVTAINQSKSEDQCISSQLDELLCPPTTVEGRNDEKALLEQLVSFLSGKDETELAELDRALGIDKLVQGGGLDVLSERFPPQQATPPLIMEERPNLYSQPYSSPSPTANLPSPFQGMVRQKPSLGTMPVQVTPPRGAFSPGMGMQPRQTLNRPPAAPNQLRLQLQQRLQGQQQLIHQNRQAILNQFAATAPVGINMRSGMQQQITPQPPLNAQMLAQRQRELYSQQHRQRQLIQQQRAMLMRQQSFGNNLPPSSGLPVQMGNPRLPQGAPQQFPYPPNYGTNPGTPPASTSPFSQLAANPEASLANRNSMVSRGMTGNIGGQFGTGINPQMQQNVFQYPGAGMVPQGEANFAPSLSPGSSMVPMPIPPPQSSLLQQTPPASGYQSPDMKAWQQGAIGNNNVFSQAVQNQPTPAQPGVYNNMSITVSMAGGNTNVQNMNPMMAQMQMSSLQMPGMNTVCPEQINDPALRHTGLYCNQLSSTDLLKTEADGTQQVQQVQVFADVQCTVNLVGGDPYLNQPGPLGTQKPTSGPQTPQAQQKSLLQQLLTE

Cytochrome P450 2C19 = Cytochrome P450 2C19 (Homo sapiens, UniProt P33261); assay: Cytochrome panel assay with activity outcomes. Panel member name: p450-cyp2c19 Compounds with AC50 equal or less than 10 uM are considered active; format: functional; settings: read-out: AC50
Cytochrome P450 1A2 = target: T5, Cytochrome P450 1A2 (Homo sapiens, UniProt P05177);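 also: PubChem cytochrome P450 panel assay, CYP1A2 panel member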
T5 sequence (P05177 whole entry): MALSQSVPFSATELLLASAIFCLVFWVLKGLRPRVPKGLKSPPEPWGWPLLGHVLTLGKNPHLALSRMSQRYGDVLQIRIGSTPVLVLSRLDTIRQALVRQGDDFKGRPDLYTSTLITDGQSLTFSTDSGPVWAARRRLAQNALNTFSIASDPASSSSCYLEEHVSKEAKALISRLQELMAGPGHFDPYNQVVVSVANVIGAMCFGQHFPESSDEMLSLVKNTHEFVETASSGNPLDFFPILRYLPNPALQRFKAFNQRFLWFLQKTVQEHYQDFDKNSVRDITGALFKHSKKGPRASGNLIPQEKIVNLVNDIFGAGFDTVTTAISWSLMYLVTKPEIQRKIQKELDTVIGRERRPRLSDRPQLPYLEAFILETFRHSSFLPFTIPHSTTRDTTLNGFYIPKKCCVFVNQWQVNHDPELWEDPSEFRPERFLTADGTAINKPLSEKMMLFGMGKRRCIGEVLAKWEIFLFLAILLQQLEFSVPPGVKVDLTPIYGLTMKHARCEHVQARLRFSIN

[20] = Luminescence Cell-Based Dose Retest to Confirm Inhibitors of Cancer Stem Cells. [Related pubchem assays (depositor defined):AID2717, AID2721]; format: functional; settings: Homo sapiens
[21] = target: NAD-dependent protein deacylase sirtuin-5, mitochondrial (Homo sapiens, UniProt Q9NXA8); assay: SIRT5 desuccinylase inhibitors, dose response, biochemical, fluorescence imaging, cherry-pick, set 5 (AID 720591);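 also: desuccinylation of succinyl peptide AMC substrate read as fluorescence after trypsin release; potency of inhibitors that lower fluorescence and may act on trypsin instead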
Cytochrome P450 2D6 = Cytochrome P450 2D6 (Homo sapiens, UniProt P10635);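 also: CYP2D6 member of a cytochrome P450 panel assay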

Sequence of Mitogen-activated protein kinase 10 (P53779 whole entry): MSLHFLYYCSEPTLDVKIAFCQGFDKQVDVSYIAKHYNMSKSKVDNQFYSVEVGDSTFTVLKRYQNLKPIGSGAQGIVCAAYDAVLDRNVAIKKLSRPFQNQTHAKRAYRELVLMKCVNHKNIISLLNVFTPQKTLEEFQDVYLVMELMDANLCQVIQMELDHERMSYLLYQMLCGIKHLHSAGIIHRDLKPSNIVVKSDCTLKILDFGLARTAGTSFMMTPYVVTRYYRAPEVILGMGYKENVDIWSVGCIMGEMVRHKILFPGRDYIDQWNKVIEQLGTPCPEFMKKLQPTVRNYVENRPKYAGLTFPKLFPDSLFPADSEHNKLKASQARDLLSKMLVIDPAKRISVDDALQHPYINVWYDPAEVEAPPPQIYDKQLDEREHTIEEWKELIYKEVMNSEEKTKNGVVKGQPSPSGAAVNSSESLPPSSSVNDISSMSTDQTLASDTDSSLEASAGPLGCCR

COc1cc(C(=O)NCc2cn3ccccc3n2)cc(OC)c1OC
IC50 [1]: 7.87 µM (active)

O=C(Nc1cccc(O)c1)c1noc2c1CCCCC2
EC50 [2]: 8.89 µM (active) | EC50 [3]: 2.87 µM (active) | EC50 (HT-1080): > 50 µM (not active) | EC50 [4]: > 100 µM (not active) | EC50 [5]: 3.4 µM (active) | EC50 [6]: > 30 µM (not active)

O=C(Nc1cnc2ccccn2c1=O)c1ccc(F)cc1
IC50 (Estrogen receptor beta): > 50 µM (not active)

O=C(/C=C/c1ccccc1[N+](=O)[O-])c1ccc(F)cc1
CC50 [7]: > 40 µM (active)

C[C@@H]1CN([C@@H](C)CO)C(=O)c2cc(NC(=O)Nc3ccccc3)ccc2O[C@@H](C)CCCCO[C@H]1CN(C)Cc1ccc(Cl)c(Cl)c1
AC50 [8]: 3.59 µM (active)

C[C@H](CO)N1C[C@H](C)[C@@H](CN(C)Cc2ccc(C(F)(F)F)cc2)OCCCC[C@H](C)Oc2ccc(NC(=O)Nc3ccc(F)cc3)cc2C1=O
AC50 [8]: 46.6 µM (active) | AC50 [9]: 45.4 µM (active) | AC50 (Paired box protein Pax-8): 9.37 µM (active) | AC50 [10]: 39.2 µM (active)

COc1ccc(Cl)cc1Nc1nc(-c2sc(NC(=O)C(C)(C)C)nc2C)cs1
IC50 [11]: 11.2 µM (inactive) | IC50 [12]: 7.99 µM (active) | IC50 [13]: > 66.6 µM (inactive)

Cc1cc(C(=O)NNS(=O)(=O)c2cc(C(=O)O)ccc2Cl)c(C)n1-c1ccccc1
AC50 (Caspase-6): 23.2 µM (active) | AC50 [14]: > 70 µM (inactive) | AC50 [15]: 16.9 µM (active) | AC50 [16]: 25.7 µM (active)

COC(=O)c1ccc(S(=O)(=O)c2ccc(C(=O)OC)s2)s1
EC50 [17]: 36.7 µM (not active) | EC50 [18]: 27.1 µM (not active) | EC50 [19]: 24.6 µM (not active)

C=CCn1c(=O)c2ccccc2n2c(SCC(=O)c3ccccc3)nnc12
EC50 [17]: > 79.4 µM (not active) | EC50 [18]: > 79.4 µM (not active) | EC50 [19]: > 79.4 µM (not active)

COc1ccc(Cn2c(C)c(C)c(C#N)c2NC(=O)Nc2cccc(C)c2)cc1
IC50 (Estrogen receptor beta): > 50 µM (not active)

CC(C)(Sc1ccc(CCN(CCCCC2CCCCC2)C(=O)NC2CCCCC2)cc1)C(=O)O [GW7647]
AC50 (Cytochrome P450 2C19): 25.1 µM (inconclusive) | AC50 (Cytochrome P450 1A2): 39.8 µM (inconclusive) | AC50 [20]: 4.46 µM (active) | AC50 [21]: 7.9 µM (active) | AC50 (Cytochrome P450 2D6): inconclusive
